Patent US20100331305A1, “OXO-HETEROCYCLE FUSED PYRIMIDINE COMPOUNDS, COMPOSITIONS AND METHODS OF USE” (Genentech, Inc., priority 2009, published 2010)

What was measured:
[1] = tested on: PC3 cells; test: In vitro cell proliferation assay; type: cell-based, human; conditions: Homo sapiens, PC-3, with PC3 cells; values tied to compounds by order of Table 1
Description: c. In Vitro Cell Proliferation Assay Efficacy of Formula I compounds were measured by a cell proliferation assay employing the following protocol: 1. An aliquot of 20 μl of cell culture containing about 10^3 cells (PC3 or MDAMB361.1) in medium was deposited in each well of a 384-well, opaque-walled plate. 2. Control wells were prepared containing medium and without cells; Cells were allowed to settle overnight. 3. The compound was added to the experimental wells and incubated for 3 days. 4. The plates were equilibrated to room temperature for approximately 30 minutes. 5. A volume of CellTiter-Glo Reagent equal to the volume of cell culture medium present in each well was added. […] The contents were mixed for 2 minutes on an orbital shaker to induce cell lysis. 7. The plate was incubated at room temperature for 20 minutes to stabilize the luminescence signal. 8. Luminescence was recorded and reported in graphs as RLU=relative luminescence units. Alternatively, cells were seeded at optimal density in a 96 well plate and incubated for 4 days in the presence of test compound. Alamar BlueTM was subsequently added to the assay medium, and cells were incubated for 6 h before reading at 544 nm excitation, 590 nm emission. EC50 values were calculated using a sigmoidal dose response curve fit.

[2] = molecular target: mTOR enzyme (mTOR(1360-2549)+GBL) (Homo sapiens, UniProt P42345); test: In vitro mTOR kinase assay (TR-FRET); type: biochemical; conditions: 0.25 nM mTOR+GBL, 8 uM ATP; values tied to compounds by order of Table 1; 'x or y' = two alternative values for separated diastereomers of unassigned stereochemistry; read-out: activity level (Ki) in the mTOR kinase assay
Sequence of mTOR enzyme (mTOR(1360-2549)+GBL) (P42345 1360-2549, species assumed): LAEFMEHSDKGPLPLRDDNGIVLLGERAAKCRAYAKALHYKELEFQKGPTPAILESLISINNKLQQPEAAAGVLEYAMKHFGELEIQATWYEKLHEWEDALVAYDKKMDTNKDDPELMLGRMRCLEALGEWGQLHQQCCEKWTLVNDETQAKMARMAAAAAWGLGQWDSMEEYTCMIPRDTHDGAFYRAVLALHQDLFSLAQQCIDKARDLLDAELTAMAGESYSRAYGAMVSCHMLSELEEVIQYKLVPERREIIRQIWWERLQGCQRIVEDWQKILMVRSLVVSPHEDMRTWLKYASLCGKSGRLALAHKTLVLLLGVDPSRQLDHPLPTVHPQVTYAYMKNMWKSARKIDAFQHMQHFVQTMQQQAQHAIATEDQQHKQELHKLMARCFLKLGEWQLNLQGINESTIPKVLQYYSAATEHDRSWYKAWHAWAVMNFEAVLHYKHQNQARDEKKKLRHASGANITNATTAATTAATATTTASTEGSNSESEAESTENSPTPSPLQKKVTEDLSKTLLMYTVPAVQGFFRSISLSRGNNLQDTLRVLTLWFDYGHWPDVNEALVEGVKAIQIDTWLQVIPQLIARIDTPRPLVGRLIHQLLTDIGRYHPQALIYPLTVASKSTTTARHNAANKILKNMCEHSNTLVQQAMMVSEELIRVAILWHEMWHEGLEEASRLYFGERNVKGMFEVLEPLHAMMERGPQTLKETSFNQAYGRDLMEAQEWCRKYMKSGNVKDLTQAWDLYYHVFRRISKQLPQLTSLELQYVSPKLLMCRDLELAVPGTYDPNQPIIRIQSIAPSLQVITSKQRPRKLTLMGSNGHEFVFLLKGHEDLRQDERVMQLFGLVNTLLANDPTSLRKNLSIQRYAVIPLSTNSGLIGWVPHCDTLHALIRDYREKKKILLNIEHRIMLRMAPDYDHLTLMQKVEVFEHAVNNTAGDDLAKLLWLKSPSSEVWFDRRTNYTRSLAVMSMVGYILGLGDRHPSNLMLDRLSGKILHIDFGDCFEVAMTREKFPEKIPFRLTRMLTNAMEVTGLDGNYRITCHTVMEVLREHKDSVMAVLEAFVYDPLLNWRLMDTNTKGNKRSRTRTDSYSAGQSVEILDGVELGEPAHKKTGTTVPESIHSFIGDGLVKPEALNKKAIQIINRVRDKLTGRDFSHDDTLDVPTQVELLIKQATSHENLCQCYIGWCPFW
Sequence of mTOR enzyme (mTOR(1360-2549)+GBL) (Q9BVC4 whole entry partner, species assumed): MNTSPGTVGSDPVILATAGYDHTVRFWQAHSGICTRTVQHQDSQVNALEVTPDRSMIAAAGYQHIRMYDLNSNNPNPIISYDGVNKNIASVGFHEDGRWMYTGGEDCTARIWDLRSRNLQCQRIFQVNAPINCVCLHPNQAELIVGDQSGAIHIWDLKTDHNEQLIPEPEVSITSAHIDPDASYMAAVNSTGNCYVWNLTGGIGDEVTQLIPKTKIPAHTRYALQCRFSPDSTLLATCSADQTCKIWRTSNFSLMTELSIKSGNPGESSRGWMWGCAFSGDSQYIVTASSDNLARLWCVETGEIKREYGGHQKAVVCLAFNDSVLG
How it was run: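 Compounds were tested in 10-point dose curves from 10 uM top final concentration. The reaction was stopped with 2 nM Tb-anti-p4E-BP1 (T37/T46) antibody plus 10 mM EDTA for 30 minutes, and phospho-4E-BP1 was detected by TR-FRET. Ki apparent was fitted with the Morrison ATP-competitive tight-binding equation.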

SMILES	EC50 [1] [nM]	Ki [2] [nM]
C[C@H]1COCCN1c1nc(-c2ccc(NC(=O)Nc3ccn(C)n3)cc2)nc2c1CCC1(CC1)O2 [Example 52, (S)-1-(1-methyl-1H-pyrazol-3-yl)-3-(4-(4′-(3-methylmorpholino)-5′,6′-dihydrospiro[cyclopropane-1,7′-pyrano[2,3-d]pyrimidine]-2′-yl)phenyl)urea]	172	1
Cc1coc(NC(=O)Nc2ccc(-c3nc4c(c(N5CCOC[C@@H]5C)n3)CCC3(CC3)O4)cc2)n1 [Example 53, (S)-1-(4-(4′-(3-methylmorpholino)-5′,6′-dihydrospiro[cyclopropane-1,7′-pyrano[2,3-d]pyrimidine]-2′-yl)phenyl)-3-(4-methyloxazol-2-yl)urea]	233	1
C[C@H]1COCCN1c1nc(-c2ccc(Nc3cccc(=O)[nH]3)cc2)nc2c1CCC1(CC1)O2 [Example 54, (S)-6-(4-(4′-(3-methylmorpholino)-5′,6′-dihydrospiro[cyclopropane-1,7′-pyrano[2,3-d]pyrimidine]-2′-yl)phenylamino)pyridin-2(1H)-one]	40	1
C[C@H]1COCCN1c1nc(-c2ccc(Nc3nccc(=O)[nH]3)cc2)nc2c1CCC1(CC1)O2 [Example 55, (S)-2-(4-(4′-(3-methylmorpholino)-5′,6′-dihydrospiro[cyclopropane-1,7′-pyrano[2,3-d]pyrimidine]-2′-yl)phenylamino)pyrimidin-4(3H)-one]	15	0.2
CNC(=O)Nc1ccc(-c2nc3c(c(N4CCOC[C@@H]4C)n2)CCC2(CC2)O3)cc1 [Example 56, (S)-1-methyl-3-(4-(4′-(3-methylmorpholino)-5′,6′-dihydrospiro[cyclopropane-1,7′-pyrano[2,3-d]pyrimidine]-2′-yl)phenyl)urea]	37	1
C[C@H]1COCCN1c1nc(-c2ccc(NC(=O)NCCS(C)(=O)=O)cc2)nc2c1CCC1(CC1)O2 [Example 57, (S)-1-(4-(4′-(3-methylmorpholino)-5′,6′-dihydrospiro[cyclopropane-1,7′-pyrano[2,3-d]pyrimidine]-2′-yl)phenyl)-3-(2-(methylsulfonyl)ethyl)urea]	595	5
CNC(=O)Nc1ccc(-c2nc3c(c(N4CCOC[C@@H]4C)n2)COCC3)cc1 [Example 58, (S)-1-methyl-3-(4-(4-(3-methylmorpholino)-7,8-dihydro-5H-pyrano[4,3-d]pyrimidin-2-yl)phenyl)urea]	173	7
C[C@H]1COCCN1c1nc(-c2ccc(NC(=O)NCCS(C)(=O)=O)cc2)nc2c1COCC2 [Example 59, (S)-1-(4-(4-(3-methylmorpholino)-7,8-dihydro-5H-pyrano[4,3-d]pyrimidin-2-yl)phenyl)-3-(2-(methylsulfonyl)ethyl)urea]	4000	46
C[C@H]1COCCN1c1nc(-c2ccc(NC(=O)NCCO)cc2)nc2c1CCC1(CC1)O2 [Example 65, (S)-1-(2-hydroxyethyl)-3-(4-(4′-(3-methylmorpholino)-5′,6′-dihydrospiro[cyclopropane-1,7′-pyrano[2,3-d]pyrimidine]-2′-yl)phenyl)urea]	19	0.4
C[C@H]1COCCN1c1nc(-c2ccc(NC(=O)NCCC#N)cc2)nc2c1CCC1(CC1)O2 [Example 66, (S)-1-(2-cyanoethyl)-3-(4-(4′-(3-methylmorpholino)-5′,6′-dihydrospiro[cyclopropane-1,7′-pyrano[2,3-d]pyrimidine]-2′-yl)phenyl)urea]	99	2
CONC(=O)Nc1ccc(-c2nc3c(c(N4CCOC[C@@H]4C)n2)CCC2(CC2)O3)cc1 [Example 67, (S)-1-methoxy-3-(4-(4′-(3-methylmorpholino)-5′,6′-dihydrospiro[cyclopropane-1,7′-pyrano[2,3-d]pyrimidine]-2′-yl)phenyl)urea]	853	10
C[C@H]1COCCN1c1nc(-c2ccc(NC(=O)NC[C@H](O)CO)cc2)nc2c1CCC1(CC1)O2 [Example 68, 1-((S)-2,3-dihydroxypropyl)-3-(4-(4′-((S)-3-methylmorpholino)-5′,6′-dihydrospiro[cyclopropane-1,7′-pyrano[2,3-d]pyrimidine]-2′-yl)phenyl)urea]	804	3
C[C@H]1COCCN1c1nc(-c2ccc(NC(=O)NC[C@@H](O)CO)cc2)nc2c1CCC1(CC1)O2 [Example 69, 1-((R)-2,3-dihydroxypropyl)-3-(4-(4′-((S)-3-methylmorpholino)-5′,6′-dihydrospiro[cyclopropane-1,7′-pyrano[2,3-d]pyrimidine]-2′-yl)phenyl)urea]	1200	2
C[C@H]1COCCN1c1nc(-c2ccc(NC(=O)NC3(CO)CC3)cc2)nc2c1CCC1(CC1)O2 [Example 70, (S)-1-(1-(hydroxymethyl)cyclopropyl)-3-(4-(4′-(3-methylmorpholino)-5′,6′-dihydrospiro[cyclopropane-1,7′-pyrano[2,3-d]pyrimidine]-2′-yl)phenyl)urea]	1600	20
O=C(Nc1ccc(-c2nc3c(c(N4[C@@H]5CC[C@H]4COC5)n2)CCC2(CC2)O3)cc1)NC1COC1 [Example 71, 1-(4-(4′-((1R,5S)-3-oxa-8-azabicyclo[3.2.1]octan-8-yl)-5′,6′-dihydrospiro[cyclopropane-1,7′-pyrano[2,3-d]pyrimidine]-2′-yl)phenyl)-3-(oxetan-3-yl)urea]	479	2
O=C(NCCO)Nc1ccc(-c2nc3c(c(N4[C@@H]5CC[C@H]4COC5)n2)CCC2(CC2)O3)cc1 [Example 72, 1-(4-(4′-((1R,5S)-3-oxa-8-azabicyclo[3.2.1]octan-8-yl)-5′,6′-dihydrospiro[cyclopropane-1,7′-pyrano[2,3-d]pyrimidine]-2′-yl)phenyl)-3-(2-hydroxyethyl)urea]	173	1
C=CC[C@]1(C)OCc2c(N3CCOCC3)nc(-c3ccc(NC(=O)NCC)cc3)nc21 [Example 73 eb (S), (S)-1-(4-(7-allyl-7-methyl-4-morpholino-5,7-dihydrofuro[3,4-d]pyrimidin-2-yl)phenyl)-3-ethylurea]	37.6	2
CCC[C@@]1(C)OCc2c(N3CCOCC3)nc(-c3ccc(NC(=O)NCC)cc3)nc21 [Example 73 ef (R), (R)-1-ethyl-3-(4-(7-methyl-4-morpholino-7-propyl-5,7-dihydrofuro[3,4-d]pyrimidin-2-yl)phenyl)urea]	92	4
CCC[C@]1(C)OCc2c(N3CCOCC3)nc(-c3ccc(NC(=O)NCC)cc3)nc21 [Example 73 ef (S), (S)-1-ethyl-3-(4-(7-methyl-4-morpholino-7-propyl-5,7-dihydrofuro[3,4-d]pyrimidin-2-yl)phenyl)urea]	35	2
CCNC(=O)Nc1ccc(-c2nc(N3CCOC[C@@H]3C)c3c(n2)[C@](C)(CCN2CCOCC2)OC3)cc1 [Example 76 eo (S), 1-ethyl-3-(4-((S)-7-methyl-4-((S)-3-methylmorpholino)-7-(2-morpholinoethyl)-5,7-dihydrofuro[3,4-d]pyrimidin-2-yl)phenyl)urea]	45	293
